Test [1] has as its system wild type S. epidermidis RP62A. The experiment in a line: microbe, parasite or virus in culture. It is filed as cell-based, Staphylococcus epidermidis. The following applies: for MIC: Sensitive strain (SPase without the resistance-conferring Pro); for minimal inhibitory concentration (MIC): Table 3, P3 position derivatives, unit not given.
A further test has as its system wild type E. coli MG1655. The experiment in a line: microbe, parasite or virus in culture. It is filed as cell-based, Escherichia coli.
The test system of test [2] is Brevibacillus brevis ATCC 8246. The experiment in a line: microbe, parasite or virus in culture. It is filed as cell-based. To be noted: ATCC8246.
Test [3] relates to Gram-negative strains (E. coli, P. aeruginosa). Briefly: MIC panel. It is filed as cell-based. To be noted: for activity in words: wild type or mutant Gram-negative strains.
The subject of test [4] is Gram-positive bacteria (S. epidermidis, S. aureus). The experiment in a line: MIC panel. It is filed as cell-based.
Test [5] concerns lepB(P29S) S. aureus 8325. The experiment in a line: microbe, parasite or virus in culture. To be noted: for minimal inhibitory concentration (MIC): Table 3, P3 position derivatives, unit not given; for MIC: Sensitive (genetically sensitized) strain. It is filed as cell-based, Staphylococcus aureus.
For test [6], the system named is lepB(P84L) E. coli MG1655. Briefly: microbe, parasite or virus in culture. It is filed as cell-based, Escherichia coli. The following applies: for minimal inhibitory concentration (MIC): Table 3, P3 position derivatives, unit not given; for MIC: Escherichia coli, MG1655, Sensitive (genetically sensitized) strain, read-out: MIC.
Test [7] concerns lepB(P84L) P. aeruginosa PAO1. Briefly: microbe, parasite or virus in culture. The following applies: for minimal inhibitory concentration (MIC): Table 3, P3 position derivatives, unit not given; for MIC: Pseudomonas aeruginosa, PAO1, Sensitive (genetically sensitized) strain, read-out: MIC. It is filed as cell-based, Pseudomonas aeruginosa.
Test [8] relates to S. epidermidis, S. aureus, E. coli, and P. aeruginosa. Briefly: MIC panel. It is filed as cell-based. To be noted: all bacteria / organisms tested.
In a further test the test system is wild type S. aureus 8325. The experiment in a line: microbe, parasite or virus in culture. It is filed as cell-based, Staphylococcus aureus.
In test [9] the test system is S. epidermidis ATCC 35984. The experiment in a line: MIC of selected compounds. The following applies: Table 1. It is filed as cell-based.
The test system of test [10] is spsB(S29P) S. epidermidis RP62A. The experiment in a line: microbe, parasite or virus in culture. It is filed as cell-based, Staphylococcus epidermidis.
In test [11] the test system is wild type P. aeruginosa PAO1. Briefly: microbe, parasite or virus in culture. It is filed as cell-based, Pseudomonas aeruginosa.
For test [12], the system named is S. epidermidis PAS9002 (SPase S31P). It is filed as cell-based, Staphylococcus epidermidis.
Test [13] has as its system E. coli PAS0232 (SPase P84S). It is filed as cell-based, Escherichia coli.
Test [14] deals with P. aeruginosa PAS2006 (SPase P84S). It is filed as cell-based, Pseudomonas aeruginosa.
In test [15] the test system is Rhodococcus equi ATCC 6939. Briefly: microbe, parasite or virus in culture. It is filed as cell-based. The following applies: Rhodococcus (subgen. Prescottella) equi, ATCC6939.
The subject of test [16] is Rhodococcus opacus DSM 1069. The experiment in a line: microbe, parasite or virus in culture. To be noted: Rhodococcus opacus, DSM1069; read-out: MIC. It is filed as cell-based.
Test [17] concerns Streptococcus agalactiae COH-1. The experiment in a line: microbe, parasite or virus in culture. It is filed as cell-based.
Test [18] relates to Streptococcus pyogenes M1-5448. The experiment in a line: microbe, parasite or virus in culture. It is filed as cell-based. The following applies: Streptococcus pyogenes, M15448; read-out: MIC.
Test [19] has as its system Streptococcus pneumoniae R800. Briefly: microbe, parasite or virus in culture. It is filed as cell-based. The following applies: Streptococcus pneumoniae, R800; read-out: MIC.
Test [20] concerns Corynebacterium efficiens DSM 44549. The experiment in a line: microbe, parasite or virus in culture. It is filed as cell-based. The following applies: Corynebacterium efficiens, DSM44549; read-out: MIC.
Test [21] relates to Corynebacterium glutamicum DSM 44475. Briefly: microbe, parasite or virus in culture. It is filed as cell-based. To be noted: DSM44475.
The test system of another test is Lactococcus lactis. Briefly: microbe, parasite or virus in culture. It is filed as cell-based. To be noted: Lactococcus lactis, several values = different isolates/subspecies; read-out: MIC.
Where [22] appears, read: Staphylococcus epidermidis, read-out: MIC.
Where [23] appears, read: Escherichia coli, MG1655, Resistant strain (wild type), read-out: MIC.
Where [24] appears, read: Staphylococcus aureus, read-out: MIC.
The mark [25] stands for this setting: Staphylococcus aureus, Resistant strain (wild type), read-out: MIC.
Setting [26] is: Pseudomonas aeruginosa, PAO1, Resistant strain (wild type), read-out: MIC.

Values after ≈ are worked out from the molar mass of the structure shown. Where two headings read alike, the source gives them in different places. A value given as a limit tells only on which side of the number the result lay.

In the case of `CCCCCCCCCCCCCCCC(=O)N(C)[C@H](CO)C(=O)N[C@H](C)C(=O)NCC(=O)N(C)[C@@H]1C(=O)N[C@@H](C)C(=O)N[C@H](C(=O)O)Cc2cc(N)c(O)c(c2)-c2cc1ccc2O` [Compound 36], the MIC in test [1] (setting [22]) is 8 µg/mL (≈ 8.93 µM); in the test with wild type E. coli MG1655 (setting [23]) it was greater than 64 µg/mL; in test [2] it was greater than 64 µg/mL. Moreover, the “fold loss of activity relative to the parent compounds” value in test [3] (Gram-negative pathogens) is 8 fold; in test [4], 32 fold.
For `CCCCCCCCCCCCCCCC(=O)N(C)[C@H](CO)C(=O)N[C@H](C)C(=O)NCC(=O)N(C)[C@@H]1C(=O)N[C@@H](CCCO)C(=O)N[C@H](C(=O)O)Cc2ccc(O)c(c2)-c2cc1ccc2O` [Compound 31], the “minimal inhibitory concentration (MIC)” value in [1], in test [5], in test [6] and in test [7] was greater than 64 in each case. The activity in words result in [8] is listed as “All activity was lost”.
For the molecule arylomycin A2 [reference compound], the MIC in the test on wild type S. aureus 8325 (Table 1, S. aureus 8325) is greater than 128 µM; with wild type E. coli MG1655 (Table 1, E. coli MG1655), greater than 128 µM; in test [9], 1 µM.
Turning to arylomycin C16, the MIC in [1] was 0.25 µg/mL; in [5], 2 µg/mL; in [10], 8 µg/mL; against wild type S. aureus 8325 (Resistant strain (wild type)) it was greater than 128 µg/mL; in the test with wild type E. coli MG1655 (Resistant strain (wild type)), greater than 128 µg/mL; in [11] (Resistant strain (wild type)) it was greater than 128 µg/mL. For the same molecule, the MIC in test [12] is greater than 128 µg/mL; in test [13] it was 2 µg/mL; in [14], 8 µg/mL.
On to `CCCCCCCCCCCCCCCC(=O)N(C)[C@H](CO)C(=O)N(C)[C@H](C)C(=O)NCC(=O)N(C)[C@@H]1C(=O)N[C@@H](C)C(=O)N[C@H](C(=O)O)Cc2ccc(O)c(c2)-c2cc1ccc2O` [Compound 18], for which the MIC (in test [1] (setting [22]); in test [5] (setting [24]); in test [6]; in test [7]; in test [10] (setting [22]); with wild type S. aureus 8325 (setting [25])) was greater than 64 µg/mL in each case. For the same molecule, the MIC (with wild type E. coli MG1655 (setting [23]); in [11] (setting [26])) was greater than 64 µg/mL each time. For the same molecule, the activity in words entry in [10] was “retained full activity”; in test [3] it was “complete loss of activity”.
For `CCCCCCCCCCCCCCCC(=O)N(C)[C@H](CO)C(=O)N[C@H](C)C(=O)NCC(=O)N(C)[C@@H]1C(=O)N[C@@H](C)C(=O)N[C@H](C(=O)O)Cc2ccc(O)c(c2)-c2cc1ccc2O` [Compound 25], the figures for the MIC in test [1] (setting [22]) and in [5] (setting [24]) were 32 µg/mL (≈ 36.3 µM) and 64 µg/mL, respectively. In addition, the activity in words entry in test [3] is on record as “no activity”.
`CCCCCCCCCCCCCCCC(=O)N(C)[C@H](CO)C(=O)N[C@H](C)C(=O)NCC(=O)N(C)[C@@H]1C(=O)N[C@@H](C)C(=O)N[C@H](C(=O)O)Cc2cc(c(O)c([N+](=O)[O-])c2)-c2cc1ccc2O` [Arylomycin B-C16, arylomycin B-C16]: the activity in words result is “potent activity” in [1]; “has activity” in [5]; “has activity” in [6]; “has activity” in test [7]; “no activity” with wild type E. coli MG1655. For the same molecule, the MIC in test [1] (setting [22]) is 0.13 µg/mL (≈ 0.14 µM); in test [5] (setting [24]), 8 µg/mL; in [6], 2 µg/mL; in [7] it was 4 µg/mL; with wild type E. coli MG1655 (setting [23]), greater than 64 µg/mL; in test [2], greater than 64 µg/mL. The MIC in [15] is 32 µg/mL (≈ 34.6 µM); in test [16], 4 µg/mL (≈ 4.32 µM); in test [17] (Streptococcus agalactiae, COH1), 8 µg/mL (≈ 8.64 µM); in test [18], 4 µg/mL (≈ 4.32 µM); in test [19] it was 16 µg/mL (≈ 17.3 µM); in [20], 16 µg/mL (≈ 17.3 µM). For the same molecule, the MIC in test [21] was determined as 2 µg/mL (≈ 2.16 µM); with Lactococcus lactis it was 32 µg/mL (≈ 34.6 µM). For the same molecule, the “fold more activity than arylomycin C16” value in test [17] is listed as “greater than 16 fold”.
As for `CCCCCCCCCCCCCCCC(=O)N(C)[C@H](CO)C(=O)N[C@H](C)C(=O)NCC(=O)N(C)[C@@H]1C(=O)N[C@@H](CCCCO)C(=O)N[C@H](C(=O)O)Cc2ccc(O)c(c2)-c2cc1ccc2O` [Compound 32], the “minimal inhibitory concentration (MIC)” value in [1], in test [5], in [6] and in test [7] was greater than 64 each time. Moreover, the activity in words result in test [8] is reported as “All activity was lost”.
`CCCCCCCCCCCCCCCC(=O)N1CC(O)C[C@@H]1C(=O)N[C@H](C)C(=O)NCC(=O)N(C)[C@@H]1C(=O)N[C@@H](C)C(=O)N[C@H](C(=O)O)Cc2ccc(O)c(c2)-c2cc1ccc2O` (stereo partly shown) [Compound 19]: the MIC in test [1] (setting [22]) is 4 µg/mL (≈ 4.48 µM); in test [5] (setting [24]), 4 µg/mL; in [6], greater than 64 µg/mL; in [7], greater than 64 µg/mL; in test [10] (setting [22]) it was 8 µg/mL (≈ 8.96 µM); in the test with wild type S. aureus 8325 (setting [25]), greater than 64 µg/mL. The MIC (with wild type E. coli MG1655 (setting [23]); in test [11] (setting [26])) was greater than 64 µg/mL each time.
Consider `CCCCCCc1ccc(C(=O)N(C)[C@H](CO)C(=O)N[C@H](C)C(=O)NCC(=O)N(C)[C@@H]2C(=O)N[C@@H](C)C(=O)N[C@H](C(=O)O)Cc3ccc(O)c(c3)-c3cc2ccc3O)cc1` [Compound 13], for which the MIC in [1] (setting [22]) is 1 µg/mL (≈ 1.2 µM); in test [5] (setting [24]), 8 µg/mL; in test [6], 1 µg/mL; in test [7] it was greater than 64 µg/mL; in test [10] (setting [22]) it was 16 µg/mL (≈ 19.3 µM); in the test with wild type S. aureus 8325 (setting [25]) it was 16 µg/mL. Moreover, the MIC (in the test on wild type E. coli MG1655 (setting [23]); in test [11] (setting [26])) was greater than 64 µg/mL each time.
